For one experiment, the system named is TP53 target genes. The experiment is described as follows: RNA-seq analysis of FKBP12^F36V-p53 H1299 cells. Format: cell-based, Human.
For another experiment, the system named is p21 promoter. The experiment in a line: ChIP-qPCR of FKBP12^F36V-p53 binding to p21 promoter. Format: cell-based, Human. The note with it: AceTAG-1 treatment vs DMSO, FIG. 7G. The text has this:
The p53/p21 ^CIP/WAF1 pathway is one of the most well-studied pathways related to p53 acetylation ^[8a, 14]. It has been reported that acetylation of p53 at lysine 373 and 382 play an important in activating transcription and translation of the p21^CIP/WAF1 gene^[15], which inhibits cell cycle progression during G1 and G2 phases ^[16]. However, it is still unknown whether these are the only two sites necessary for activation of downstream pathway. Moreover, the molecular mechanism as to how AceTAG-1 mediates p21 induction is currently uncertain as there are multiple hypotheses of how p53 acetylation affects transcriptional activity. […] We first tested whether AceTAG-mediated p53 acetylation increases its DNA binding to p21 promoter by ChIP-qPCR. The cells were incubated with AceTAG-1 and FKBP12^F36V-HA-p53 was immunoprecipitated, where DNA binding to the protein was purified for qPCR analysis. Among five p21 DNA sequences, binding of FKBP12^F36V-p53 to four previously reported p53 binding sites on p21 promoter (Mujtaba et al., Molecular Cell 13, 251-263, 2004) were increased with AceTAG-1 treatment.

The target of a further experiment is T1, H3.3-FKBP12^F36V (Homo sapiens, UniProt P62942+Q09472, F37V).
T1 construct: expressed in transfected cells
T1 sequence (P62942 2-108 F37V limits assumed): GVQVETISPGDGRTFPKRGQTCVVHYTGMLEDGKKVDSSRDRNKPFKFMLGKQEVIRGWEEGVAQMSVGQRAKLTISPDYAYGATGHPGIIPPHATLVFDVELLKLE
T1 sequence (Q09472 2-2414 limits assumed, stated change not applied): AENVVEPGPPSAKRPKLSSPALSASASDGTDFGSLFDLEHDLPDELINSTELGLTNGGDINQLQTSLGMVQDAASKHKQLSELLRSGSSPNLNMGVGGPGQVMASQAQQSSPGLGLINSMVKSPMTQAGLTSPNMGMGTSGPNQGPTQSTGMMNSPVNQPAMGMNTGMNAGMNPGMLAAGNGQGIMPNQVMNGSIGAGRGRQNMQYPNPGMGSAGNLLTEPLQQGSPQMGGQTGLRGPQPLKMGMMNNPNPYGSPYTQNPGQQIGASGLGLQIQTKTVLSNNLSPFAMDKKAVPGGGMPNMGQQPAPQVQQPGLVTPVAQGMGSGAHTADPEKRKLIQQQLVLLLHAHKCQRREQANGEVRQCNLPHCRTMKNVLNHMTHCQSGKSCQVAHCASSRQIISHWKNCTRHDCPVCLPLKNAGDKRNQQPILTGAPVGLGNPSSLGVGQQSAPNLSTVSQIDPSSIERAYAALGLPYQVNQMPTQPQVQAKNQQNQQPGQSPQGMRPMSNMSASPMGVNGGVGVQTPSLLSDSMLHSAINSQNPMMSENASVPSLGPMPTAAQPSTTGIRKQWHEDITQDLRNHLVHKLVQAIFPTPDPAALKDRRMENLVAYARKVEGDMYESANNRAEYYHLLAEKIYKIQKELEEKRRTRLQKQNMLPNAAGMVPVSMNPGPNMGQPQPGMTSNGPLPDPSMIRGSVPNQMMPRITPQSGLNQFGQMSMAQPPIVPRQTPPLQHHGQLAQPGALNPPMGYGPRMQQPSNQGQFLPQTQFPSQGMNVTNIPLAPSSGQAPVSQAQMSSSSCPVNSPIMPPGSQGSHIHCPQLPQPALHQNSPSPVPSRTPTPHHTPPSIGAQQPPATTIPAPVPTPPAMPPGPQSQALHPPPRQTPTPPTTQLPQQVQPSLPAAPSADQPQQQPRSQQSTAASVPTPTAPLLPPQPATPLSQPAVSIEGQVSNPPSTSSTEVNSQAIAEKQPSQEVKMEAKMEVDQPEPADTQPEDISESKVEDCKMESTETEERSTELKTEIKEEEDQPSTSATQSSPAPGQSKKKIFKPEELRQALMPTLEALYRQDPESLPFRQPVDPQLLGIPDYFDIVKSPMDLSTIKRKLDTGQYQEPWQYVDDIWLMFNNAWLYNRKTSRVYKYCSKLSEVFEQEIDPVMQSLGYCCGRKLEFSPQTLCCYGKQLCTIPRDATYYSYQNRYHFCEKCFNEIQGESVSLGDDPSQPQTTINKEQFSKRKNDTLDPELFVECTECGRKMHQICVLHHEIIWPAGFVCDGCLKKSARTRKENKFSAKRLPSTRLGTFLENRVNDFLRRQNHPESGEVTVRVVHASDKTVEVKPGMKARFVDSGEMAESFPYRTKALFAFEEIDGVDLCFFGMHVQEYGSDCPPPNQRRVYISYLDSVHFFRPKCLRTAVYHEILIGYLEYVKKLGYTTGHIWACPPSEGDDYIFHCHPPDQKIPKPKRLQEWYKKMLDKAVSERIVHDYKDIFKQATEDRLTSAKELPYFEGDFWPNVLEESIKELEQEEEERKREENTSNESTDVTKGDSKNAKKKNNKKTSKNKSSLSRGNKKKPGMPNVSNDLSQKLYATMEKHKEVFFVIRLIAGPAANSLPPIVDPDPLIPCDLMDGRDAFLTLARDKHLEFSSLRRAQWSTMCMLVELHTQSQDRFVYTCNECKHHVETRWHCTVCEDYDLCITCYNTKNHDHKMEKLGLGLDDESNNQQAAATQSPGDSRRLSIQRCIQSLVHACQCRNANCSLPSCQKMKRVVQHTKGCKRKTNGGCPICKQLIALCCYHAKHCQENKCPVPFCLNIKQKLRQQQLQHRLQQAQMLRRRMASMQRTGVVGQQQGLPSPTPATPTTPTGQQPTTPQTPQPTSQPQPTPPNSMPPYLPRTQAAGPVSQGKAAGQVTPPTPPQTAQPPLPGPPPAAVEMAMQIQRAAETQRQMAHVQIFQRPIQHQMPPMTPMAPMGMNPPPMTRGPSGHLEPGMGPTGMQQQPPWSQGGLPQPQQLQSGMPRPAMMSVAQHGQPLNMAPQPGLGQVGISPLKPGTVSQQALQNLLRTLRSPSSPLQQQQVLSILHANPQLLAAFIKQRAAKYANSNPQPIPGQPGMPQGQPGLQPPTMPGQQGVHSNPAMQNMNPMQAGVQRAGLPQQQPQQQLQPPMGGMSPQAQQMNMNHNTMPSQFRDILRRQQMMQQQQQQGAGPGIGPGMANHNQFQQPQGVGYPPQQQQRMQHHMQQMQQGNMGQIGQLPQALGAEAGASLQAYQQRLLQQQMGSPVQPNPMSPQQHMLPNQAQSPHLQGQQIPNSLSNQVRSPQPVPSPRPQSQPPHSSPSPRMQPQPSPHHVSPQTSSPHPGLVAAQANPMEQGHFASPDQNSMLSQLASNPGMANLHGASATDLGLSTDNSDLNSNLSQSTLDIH
The experiment in a line: Immunoblot analysis of H3.3-FKBP12^F36V acetylation in HeLa cells. The class given is cell-based. As for the experimental part: Lentivirus Production and Transduction: Lentiviral production was performed using HEK293T cells, which were co-transfected with pMD2.G (Addgene, #12259), psPAX2 (Addgene, #12260), and AceTAG lentiviral plasmids using PEI (Polysciences Inc). Viral particles were collected 72 h after transfection and filtered through a […] membrane. A range of dilutions of the lentivirus in DMEM complete and 10 μg/mL polybrene were added to HeLa, H1299, or HeLa RelA KO cell lines. Transduced cells were selected with 1 μg/mL or 2 μg/mL puromycin.
(§1) Immunoblotting: Cells were harvested in cold DPBS by scraping and washed with cold DPBS twice. Cell pellets were resuspended in DPBS supplemented with 5 mM sodium butyrate, 20 mM Nicotinamide, and 1X Halt Protease Inhibitor Cocktail and lysed by sonication (15 ms on, 40 ms off, 15% amplitude, 1s total on x 3). Protein concentration was determined using DC Protein Assay (Bio-Rad) and absorbance read using a CLARIOstar plate reader following manufacturer's instructions. Samples with equal protein content were boiled in 4X SDS gel loading buffer for 10 min. Proteins were separated by 10%, 12.5%, or 15% SDS-polyacrylamide gel electrophoresis and transferred to PVDF membranes using Trans-Blot Turbo RTA Mini […] LF PVDF Transfer Kit (Bio-Rad). Membranes were incubated for 1 h at room temperature with blocking buffer, followed by incubating overnight at 4° C. with primary antibodies. After washing in TBST, the secondary antibodies were incubated with the membranes at room temperature for 1 h. The membranes were washed with TBST for three times and visualized on a Bio-Rad ChemiDoc MP Imaging System with Clarity Max Western ECL substrate (Bio-Rad) or SuperSignal West Femto Chemiluminescent substrate proprietary luminol and peroxide solution kit (Thermo Scientific Pierce).
(Immunoblotting shows a protein as a band on a membrane.)

The subject of a further experiment is p21. The experiment is described as follows: Immunoblot of p21 expression in p53 H1299 cells without the FKBP12^F36V tag. The class given is cell-based, Human. The following applies: indicated doses, 8 hr, FIG. 7D. As for the experimental part:
as §1

[1] abbreviates: 3 μM AceTAG-1 compared to vehicle, FIG. 7F.

Consider `CC[C@H](C(=O)N1CCCC[C@H]1C(=O)O[C@H](CCc1ccc(OC)c(OC)c1)c1cccc(OCC(=O)NCCOCCOCCC(=O)NCCOc2ccc(CCc3nc4cc(-c5c(C)noc5C)ccc4n3CCN3CCOCC3)cc2)c1)c1cc(OC)c(OC)c(OC)c1` [AceTAG-1, (R)-3-(3,4-dimethoxyphenyl)-1-(3-((15-(4-(2-(5-(3,5-dimethylisoxazol-4-yl)-1-(2-morpholinoethyl)-1H-benzo[d]imidazol-2-yl)ethyl)phenoxy)-2,12-dioxo-6,9-dioxa-3,13-diazapentadecyl)oxy)phenyl)propyl (S)-1-((S)-2-(3,4,5-trimethoxyphenyl)butanoyl)piperidine-2-carboxylate], for which, in the experiment on TP53 target genes (3 μM AceTAG-1, RNA-seq), the “increases in apoptotic (Bax, Puma), metabolic (GLS2) or autoregulatory (Mdm2) targets” value is “little to no increases”. In the experiment on TP53 target genes (setting [1]), the “upregulation of CDKNIA transcript” value was around 2.8 fold, the “upregulation of GDF15 transcript” value is on record as around 3 fold, the “upregulation of SLC7A11 transcript” value is given as around 1.7 fold and the “upregulation of TP5313 transcript” value was around 1.6 fold. Further, in the experiment on p21 promoter, the “binding at the non p53 binding sites within the C-terminus of p21 gene” value was “no significant increase” and the “binding of FKBP12^F36V-p53 to four p53 binding sites on p21 promoter” value is “increased”. Also, at H3.3-FKBP12^F36V (625 nM AceTAG-1, FIG. 4E), the “treatment time after which H3.3-FKBP12^F36V acetylation significantly increased” value came to 5 min. Further, the “acetylation level at high concentration (hook effect)” value at H3.3-FKBP12^F36V (50 μM AceTAG-1) is “loss of acetylation level”. The “K18 acetylation, comparison of analogs” value on H3.3-FKBP12^F36V (FIG. 9B) was “modestly higher levels of acetylation relative to the other analogs”. In addition, at H3.3-FKBP12^F36V (HeLa cells, FIG. 8), the “acetylation of H3.3” value is on record as “significant acetylation of H3.3”. For the same compound, the “H3.3 acetylation at lysine 18, 23, and 27” value at H3.3-FKBP12^F36V (increasing concentrations, 2 hr, FIG. 4B) is listed as “dose-dependent increase”. Further, the “H3.3 acetylation at lysine 9, 14, or 79” value at H3.3-FKBP12^F36V (increasing concentrations, 2 hr, FIG. 4C) is listed as “not lysine 9, 14, or 79”. Further, the “time for H3.3 K18 acetylation to reach near basal levels after compound removal” value at H3.3-FKBP12^F36V (washout, FIG. 4F) was at most 2 h. The “p21 induction in H1299 cells expressing p53 without the FKBP12^F36V tag” value in the experiment with p21 is reported as “not observed”.

The values are drawn from US20240238426A1, “PROTEIN ACYLATION MODULATION BY HETEROBIFUNCTIONAL MOLECULES” (THE SCRIPPS RESEARCH INSTITUTE, priority 2021, published 2024).
